Entries after “also recorded” stand apart in the source; their conditions may differ.
How the values were obtained:
[1] = tested on: Lrat−/− and Rpe65−/− knockout mice; conditions: gastric gavage, Lrat−/− mice; cited from earlier work
rhodopsin/opsin = target: T1, rhodopsin/opsin (Mus musculus, UniProt P15409); experiment: Purified rhodopsin/opsin analysis after long-term treatment; format: in vivo
T1 construct: from tissue; host or cells: whole eyes of wild-type C57BL/6 female mice
Protocol: Two weeks after the last gavage with either, 9-cis-R-Ac, all-trans-R-Ac or vehicle, groups of 48 hr dark-adapted mice were analyzed for recovery of dark adaptation after light exposure, purified rhodopsin/opsin and retinoids in the eye and retinal morphology (FIG. 1C; Methods). Mice were exposed to light of intensity 500 cd·m^−2 that bleached ˜90% of rhodopsin, anesthetized and monitored by ERG for one hr to evaluate recovery of dark adaptation. Rhodopsin was purified and rhodopsin/opsin ratios was determined. Retinoid analyses were performed on dissected eyes removed at 0, 10, 30, and 60 min after exposure to the same amount of light. Mice used to evaluate retinal morphology were not exposed to photobleaching prior to analysis.
Rhodopsin purification was done under dim red light as previously described (Zhu, L., et al. J Biot Chem, 279, 53828-53839 (2004)). Purified anti-rhodopsin C terminus antibody 1D4 (MacKenzie, D., Arendt, A., Hargrave, P., McDowell, J. H. & Molday, R. S. Biochemistry, 23, 6544-6549 (1984)) was immobilized on CNBr-activated Sepharose 4B and a 4.6×12-mm column was packed with 2 mg of 1 D4 antibody/ml of Sepharose beads. Mouse whole eyes were homogenized in 137 mM NaCl, 5.4 mM Na2HPO4, 2.7 mM KCl and 1.8 mM KH2PO4 (pH 7.5) with a glass-to-glass homogenizer. Soluble proteins in the supernatant were removed by centrifugation at 14,000×g for 5 min and the pellet was solubilized in buffer containing 1% dodecyl-β-maltoside in 10 mM Bis-Tris propane (pH 7.5) containing 500 mM NaCl. The supernatant was cleared by centrifugation at 125,000×g for 20 min and loaded onto an antibody 1 D4-packed immunoaffinity column which was then thoroughly washed at a flow rate of 0.5 ml/min with 10 mM Bis-Tris propane (pH 7.5) containing 500 mM NaCl and 0.1% dodecyl-β-maltoside. […] Purified rhodopsin concentration was determined at 500 nm and total amount of opsin and rhodopsin at 280 nm with a Hewlett-Packard 8452A UV-visible spectrophotometer (Palczewski, K., Carruth, M. E., Adamus, G., McDowell, J. H. & Hargrave, P. A. Vision Research, 30, 1129-1137 (1990)).

retina = experiment: Retinal morphology (light and electron microscopy); format: in vivo, mouse
Protocol: The thickness of each major layer in the retina was also similar between control and treated groups.
For light microscopy, mouse eyecups were fixed with 2.5% glutaraldehyde and 1.6% paraformaldehyde in 0.08 M 1,4-piperazinediethanesulfonate buffer (PIPES) (pH 7.4) containing 2% sucrose for ˜1 hr at room temperature followed by 23 hr at 4° C. Eyecups then were washed with 0.13 M sodium phosphate buffer (pH 7.3) and dehydrated through a CH3OH series and embedded in JB4 glycol metacrylate. Sections (6 μm) were stained by immersion in 5% Richardson's stain for 1.5-2 min at room temperature and destained in 0.13 M sodium phosphate (pH 7.3) until the retinal layers were visible by light microscopy (about 8-15 min). For transmission electron microscopy, mouse eyecups were analyzed as described previously (Maeda, A., et al. J Blot Chem 280, 18822-18832 (2005); Maeda, T., Lem, J., Palczewski, K. & Haeseleer, F. Investigative ophthalmology & visual science 46, 4320-4327 (2005)).

[2] = Hepatic retinoic acid levels after long-term treatment; format: in vivo, mouse; conditions: all groups
Protocol: To evaluate the safety of long-term administration of 9-cis-R-Ac, A2E accumulation was measured (FIG. 6A), because retinals spontaneously condense to this compound (Mata, N. L., Weng, J. & Travis, G. H. Proceedings of the National Academy of Sciences of the United States of America 97, 7154-7159 (2000); Parish, C. A., Hashimoto, M., Nakanishi, K., Dillon, J. & Sparrow, J. Proceedings of the National Academy of Sciences of the United States of America 95, 14609-14613 (1998)).
Analysis of retinoic acid in the liver was carried out as described before (Batten, M. L., et al. PLoS Medicine 2, e333 (2005)) by an Agilent 1100 HPLC with two tandem normal phase columns: a Varian Microsorb Silica 3 μm, 4.6×100 mm (Varian, Palo Alto, Calif.) and an Ultrasphere-Si, 5 μm, 4.6×250 mm column. An isocratic solvent system of 1000:4.3:0.675 hexane:2-propanol:glacial acetic acid (v/v) was used at a flow rate of 1 ml/min at 20° C. with detection at 355 nm. Calibration was done with standards of all-trans-RA and 9-cis-RA purchased from Sigma-Aldrich.

T1 sequence (P15409 whole entry): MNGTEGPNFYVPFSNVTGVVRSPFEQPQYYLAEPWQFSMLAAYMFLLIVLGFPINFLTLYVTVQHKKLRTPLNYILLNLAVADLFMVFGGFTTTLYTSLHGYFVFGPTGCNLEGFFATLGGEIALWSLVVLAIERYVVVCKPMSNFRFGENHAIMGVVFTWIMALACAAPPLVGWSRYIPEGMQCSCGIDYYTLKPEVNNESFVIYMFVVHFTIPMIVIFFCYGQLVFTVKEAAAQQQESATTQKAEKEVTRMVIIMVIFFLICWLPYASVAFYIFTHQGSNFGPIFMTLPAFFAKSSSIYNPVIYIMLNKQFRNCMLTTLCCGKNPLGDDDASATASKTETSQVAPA

Compound: CC(=O)OC/C=C(C)/C=C/C=C(C)\C=C\C1=C(C)CCCC1(C)C [9-cis-R-Ac, 9-cis-retinyl acetate]
- beneficial effects compared with 9-cis-retinal [1]: same beneficial effects as 9-cis-retinal
- amounts of purified protein recovered (rhodopsin/opsin; 10-month-old treated mice, N1 versus C1): only slightly attenuated
- amounts of purified protein recovered (rhodopsin/opsin; 14 months of age, N2 and N3 vs C2): significantly lower
- regeneration ratios (rhodopsin/opsin) and total amounts of purified rhodopsin (rhodopsin/opsin; long-term treatment, 10 and 14 months of age, control vs treated): no significant differences
- retinal abnormalities by light microscopy (retina; 10 and 14 months of age): no major abnormalities
- EM analysis of the outer retina and RPE layer (retina; control vs treated): no gross differences
- thickness of each major layer in the retina (retina; control vs treated): similar
- lengths of rod outer segments (ROS) (retina; control vs treated at 10 and 14 months of age): similar
- hepatic retinoic acid levels [2]: below detectable levels; also recorded: did not accumulate
